From ChEMBL document CHEMBL1921744, “Lipophosphonoxins: new modular molecular structures with significant antibacterial properties” (J Med Chem, 2011)
Converted amounts (≈) assume the structure as drawn.

Test system: Mycobacterium tuberculosis
Test: Antimycobacterial activity against drug-resistant Mycobacterium tuberculosis
Format: functional

`CO[C@@H]1[C@@H](OC)[C@H](C)O[C@@H](OC(=O)C[C@@H](C)CC(=O)O[C@@H](CCCCCCCCCCCC(C)C)CC(=O)O[C@H]2CN(C)[C@@H]([C@H](O[C@@H]3O[C@H](CN)[C@@H](O)[C@H]3O)[C@H]3O[C@@H](n4ccc(=O)[nH]c4=O)[C@H](O)[C@@H]3O)C(=O)N(C)[C@@H]2C(=O)O)[C@@H]1OC` [CAPRAZAMYCIN B] showed an MIC of 3.13 µg/mL (≈ 2.7 µM).
